In BindingDB's records for doi:10.1021/jm034141y (Merck Research Laboratories, 2003):

Test: In vitro inhibition of purified Carboxypeptidase B (CPB) by ECL assay

Row | IC50 [nM] | SMILES
1 | > 100000 | O=C(O)C(Cc1ccccc1)c1cnc[nH]1 (configuration not stated) [2-(1H-Imidazol-4-yl)-3-phenyl-propionic acid]
2 | 21 | Nc1ccc(CC(C(=O)O)c2cn(Cc3ccccc3)cn2)cn1 (configuration not stated) [3-(6-Amino-pyridin-3-yl)-2-(1-benzyl-1H-imidazol-4-yl)-propionic acid]
